Data: publication PMC10208956, “Microbial peptides activate tumour-infiltrating lymphocytes in glioblastoma” (Nature, 2023)

Experiments:
[1] = tested on: TCC8F7; test: Proliferation of TCC8F7, 3H-thymidine (SI), 3 days; type: cell-based, human; settings: irradiated autologous PBMCs as APCs, Extended Data Fig. 5d
[2] = tested on: isolated TIL-derived CD4+ TCCs; test: All isolated TCCs tested against SIN3A* peptide: IFNγ ELISA; type: cell-based, human; design: unit not given beside the values

In the case of Ac-QPVEFNHAIHYVN-NH2 [SIN3A*], the “response of TCC8F7 (in words)” value [1] is reported as “strongly responds”, the ΔIFN-γ ([2]; TCC4, sheet 2b) is reported as 149.53 and the ΔIFN-γ ([2]; TCC11, sheet 2b) is reported as 677.024. It also gave a ΔIFN-γ ([2]; TCC12, sheet 2b) of 3046.79, a ΔIFN-γ ([2]; TCC13, sheet 2b) of 3192.25 and a ΔIFN-γ ([2]; TCC15, sheet 2b) of 3025.62. It also gave a ΔIFN-γ ([2]; TCC16, sheet 2b) of 180.455, a ΔIFN-γ ([2]; TCC20, sheet 2b) of 364.759 and a ΔIFN-γ ([2]; TCC29, sheet 2b) of 1013.6. The ΔIFN-γ ([2]; TCC31, sheet 2b) was 514.2, the ΔIFN-γ ([2]; TCC33, sheet 2b) was 2998.1 and the ΔIFN-γ ([2]; TCC35, sheet 2b) was 228.964. The ΔIFN-γ ([2]; TCC38, sheet 2b) was 2702.02, the ΔIFN-γ ([2]; TCC43, sheet 2b) was 1674.62 and the ΔIFN-γ ([2]; TCC47, sheet 2b) was 2470.16. For the same substance, the ΔIFN-γ ([2]; TCC52, sheet 2b) was 3139.72, the ΔIFN-γ ([2]; TCC56, sheet 2b) was 642.429 and the ΔIFN-γ ([2]; TCC57, sheet 2b) was 2874.97. It also gave a ΔIFN-γ ([2]; TCC60, sheet 2b) of 2990.72, a ΔIFN-γ ([2]; TCC63, sheet 2b) of 2437.29 and a ΔIFN-γ ([2]; TCC64, sheet 2b) of 999.502. The ΔIFN-γ ([2]; TCC68, sheet 2b) was 1874.1, the ΔIFN-γ ([2]; TCC71, sheet 2b) was 665.867 and the ΔIFN-γ ([2]; TCC74, sheet 2b) was 114.375. For the same substance, the ΔIFN-γ ([2]; TCC75, sheet 2b) was 2585.8, the ΔIFN-γ ([2]; TCC76, sheet 2b) was 3066.75 and the ΔIFN-γ ([2]; TCC80, sheet 2b) was 218.522. The ΔIFN-γ ([2]; TCC88, sheet 2b) was 3049.73, the ΔIFN-γ ([2]; TCC90, sheet 2b) was 3011.57 and the ΔIFN-γ ([2]; TCC91, sheet 2b) was 1519.81. For the same substance, the ΔIFN-γ ([2]; TCC92, sheet 2b) was 2090.54, the ΔIFN-γ ([2]; TCC93, sheet 2b) was 2670.59 and the ΔIFN-γ ([2]; TCC94, sheet 2b) was 2350.89. It also gave a ΔIFN-γ ([2]; TCC96, sheet 2b) of 2552.89, a ΔIFN-γ ([2]; TCC97, sheet 2b) of 2298.23 and a ΔIFN-γ ([2]; TCC98, sheet 2b) of 2713.07. It also gave a ΔIFN-γ ([2]; TCC99, sheet 2b) of 3298.51, a ΔIFN-γ ([2]; TCC101, sheet 2b) of 3002.86 and a ΔIFN-γ ([2]; TCC102, sheet 2b) of 3070.31. It also gave a ΔIFN-γ ([2]; TCC103, sheet 2b) of 2311.95, a ΔIFN-γ ([2]; TCC104, sheet 2b) of 2494.03 and a ΔIFN-γ ([2]; TCC107, sheet 2b) of 2341.01. For the same substance, the ΔIFN-γ ([2]; TCC109, sheet 2b) was 2148.29, the ΔIFN-γ ([2]; TCC110, sheet 2b) was 2115.13 and the ΔIFN-γ ([2]; TCC111, sheet 2b) was 2750.31. The ΔIFN-γ ([2]; TCC112, sheet 2b) was 334.245, the ΔIFN-γ ([2]; TCC113, sheet 2b) was 2127.79 and the ΔIFN-γ ([2]; TCC114, sheet 2b) was 270.204. It also gave a ΔIFN-γ ([2]; TCC115, sheet 2b) of 2141.31, a ΔIFN-γ ([2]; TCC116, sheet 2b) of 2065.23 and a ΔIFN-γ ([2]; TCC117, sheet 2b) of 2609.06. The ΔIFN-γ ([2]; TCC120, sheet 2b) was 5141.59, the ΔIFN-γ ([2]; TCC121, sheet 2b) was 3587.93 and the ΔIFN-γ ([2]; TCC124, sheet 2b) was 8256.17. The ΔIFN-γ ([2]; TCC125, sheet 2b) was 202.234, the ΔIFN-γ ([2]; TCC126, sheet 2b) was 7530.28 and the ΔIFN-γ ([2]; TCC127, sheet 2b) was 9381.79. For the same substance, the ΔIFN-γ ([2]; TCC128, sheet 2b) was 4427.79, the ΔIFN-γ ([2]; TCC129, sheet 2b) was 4034.06 and the ΔIFN-γ ([2]; TCC130, sheet 2b) was 4723.17. The ΔIFN-γ ([2]; TCC131, sheet 2b) was 125.708, the ΔIFN-γ ([2]; TCC132, sheet 2b) was 7560.44 and the ΔIFN-γ ([2]; TCC133, sheet 2b) was 4444.38. The ΔIFN-γ ([2]; TCC134, sheet 2b) was 2468, the ΔIFN-γ ([2]; TCC135, sheet 2b) was 4703.02 and the ΔIFN-γ ([2]; TCC137, sheet 2b) was 3613.61. It also gave a ΔIFN-γ ([2]; TCC138, sheet 2b) of 0.
